Assay results taken from US20110182860A1 (priority 2009, published 2011).
Marks after values point to notes of the source that are not given here.

Tested on: sheath blight caused by Rhizoctonia solani
Experiment: Rice sheath blight field experiment (Lujiang county of Anhui province)
Assay type: in vivo
Description: Rice the most important crop in China, and the sheath blight caused by Rhizoctonia solani is one of the most serious diseases in rice.

## OCC1=C[C@@H](N[C@H]2C[C@H](CO)[C@@H](O[C@H]3O[C@@H](CO)[C@H](O)[C@@H](O)[C@@H]3O)[C@H](O)[C@H]2O)[C@H](O)[C@@H](O)[C@@H]1O [Jinggangmycin (20%), Jinggangmycin]
  Control efficacy: 69.81%
  Disease severity, Means ± S.D: 26.51 ± 0.91^b %
Replicate I
  Disease severity, I: 27.43%
Replicate II
  Disease severity, II: 26.52%
Replicate III
  Disease severity, III: 25.60%
